The text below walks through data of US6451293B1, “Combination of erythrulose and a reducing sugar with self-tanning properties” (Pentapharm AG, priority 1997, dated 2002).

Molecules are shown by their SMILES.

For assay [1], the system named is skin. Kind of assay: time for the skin tan/colour to develop. As to conditions: in vivo. The method, then: The hitherto most frequently used active substance is dihydroxyacetone (hereinafter referred to as “DHA”). The fast tanning active substance (4-7 hours) does, however, have some disadvantages. The skin colour achieved is yellowish-brown, which produces an unnatural colour, particularly in pale skin. In addition, the tan is irregular and soon pales again because the top-most layers of the epidermis are quickly shed. […] This may be attributed to the fact that erythrulose dyes the skin more slowly (the colour takes about 20-24 hours to develop) and less intensively, but instead also penetrates lower layers of the Stratum corneum where it is also able to react with the free amino groups. This not only results in more even tanning, but also in a retarded effect, with the result that the tan lasts longer. Moreover the skin becomes less dried out than, for example, with DHA alone. The synergistic effect, that will subsequently also be shown with reference to examples, of the active substance combination erythrulose/other reducing sugars, such as for example DHA, was not predictable.

Assay [2] concerns skin. As to conditions: known active substance, background statement; cited from earlier work.

As to `O=C(CO)C(O)CO` (racemic) [erythrulose, 1,3,4-trihydroxy-butan-2-one], the “time the colour takes to develop” value in the assay with skin [1] was in the range of 20 to 24 h.

Take `O=C(CO)CO` [DHA, 1,3-dihydroxy-propan-2-one]: in the assay with skin [2], the time of tanning is 4 to 7 h.
